Test results: patent US20240366565A1, “Use of Verteporfin to Modulate Wound Healing After an Ocular Surgical Procedure or Ocular Injury” (The Board of Trustees of the Leland Stanford Junior …, priority 2021, published 2024)

Experiments:
[1] = test system: alpha smooth muscle actin (ASMA) in hMSCs; experiment: Immunostaining of alpha smooth muscle actin in hMSCs; type: cell-based, human; conditions: 10 ng/ml TGFB-1 with or without verteporfin, 24 hours
Procedure: FIG. 2. Results of immunostaining alpha smooth muscle actin in hMSCs. The hMSCs, were treated with 10 ng/ml TGFB-1 with or without verteporfin and DMSO for 24 hours. The next day, the cells were fixed and stained for alpha smooth muscle actin (ASMA).
The hMSCs, treated with 10 ng/ml TGFB-1 with or without verteporfin and DMSO for 24 hours, were fixed and stained for alpha smooth muscle actin (ASMA) the next day.

skin wounds = conditions: cited from earlier work
hMSCs = experiment: Live/dead cytotoxicity test in hMSCs; type: cell-based, human; conditions: 1 μg/mL and 10 μg/mL, 24 hours
Procedure: FIG. 4. Verteporfin is not cytotoxic to hMSCs. The hMSCs were treated with verteporfin at concentrations of 1 μg/mL and 10 μg/mL for 24 hours. Cells were treated with 10% DMSO for 40 minutes. The next day, the live/dead solution was added to the cells.
The hMSCs were treated with verteporfin at concentrations of 1 μg/mL and 10 μg/mL for 24 hours. Cells were treated with 10% DMSO for 40 minutes. The next day, the live/dead solution was added to the cells.

[2] = test system: corneal scarring after anterior lamellar keratectomy; experiment: Rat model of corneal injury (anterior lamellar keratectomy); type: in vivo; conditions: ALK cut depth around 50%, 10 μg/mL in Provisc gel subconjunctivally on Day 0, read at day 3, versus untreated eyes
Procedure: FIG. 6. Efficacy of verteporfin in reducing corneal scarring. Anterior lamellar keratectomy (ALK) with a cut depth of around 50% was performed in a rat model of corneal injury. 10 μg/mL verteporfin (in Provisc gel) was subconjunctivally injected after ALK on Day 0.
Anterior lamellar keratectomy (ALK) with a cut depth of around 50% was performed in a rat model of corneal injury. 10 μg/mL verteporfin (in Provisc gel) was subconjunctivally injected after ALK on Day 0.

[3] = test system: ki67 (Mki67) expression in hMSCs; experiment: qPCR of ki67 expression in hMSCs; type: cell-based, human; conditions: Verteporfin 1 μg/mL and 10 μg/mL, 24 hours
Procedure: FIG. 3. […] The hMSCs were cultured on plates. The next day, the treatments were added in duplicate: Verteporfin 1 μg/mL, Verteporfin 10 μg/mL, DMSO, and cells without treatment. After 24 hours, the medium was removed, the wells were washed with PBS and then the RNA of the cells were extracted using Trizol and Quiagen kit. qPCR was performed.
The hMSCs were cultured on plates. The next day, the treatments were added in duplicate: Verteporfin 1 μg/mL, Verteporfin 10 μg/mL, DMSO, and cells without treatment. After 24 hours, the medium was removed, the wells were washed with PBS and then the RNA of the cells were extracted using Trizol and Quiagen kit. qPCR was performed.

[4] = test system: α-smooth muscle actin (α-SMA, ACTA-2) expression in hMSCs; experiment: qPCR of α-smooth muscle actin expression in TGFB-1 treated hMSCs; type: cell-based, human
Procedure: FIG. 1. Verteporfin reduces expression of α-smooth muscle actin in hMSCs. Human mesenchymal stem cells (hMSCs) were plated in culture. The next day, the following treatments were added in duplicate: 1 μg/mL Verteporfin, 10 μg/mL Verteporfin, 10 ng/ml transforming growth factor beta-1 (TGFB-1), 1 μg/mL Verteporfin+10 ng/mL TGFB-1, 10 μg/mL Verteporfin+10 ng/ml TGFB-1, Dimethyl sulfoxide (DMSO), and cells without treatment. After 24 hours, the medium was removed, the wells were washed with PBS and then the RNA of the cells were extracted using Trizol and a Quiagen kit. Quantitative polymerase chain reaction (qPCR) was performed. TGFB-1 activation leads to the differentiation of mesenchymal stem cells into myofibroblasts, inducing expression of α-smooth muscle actin (α-SMA) and the extracellular matrix proteins such as collagen which may lead to scarring.
Human mesenchymal stem cells (hMSCs) were plated in culture. The next day, the following treatments were added in duplicate: 1 μg/mL Verteporfin, 10 μg/mL Verteporfin, 10 ng/ml transforming growth factor beta-1 (TGFB-1), 1 μg/mL Verteporfin+10 ng/ml TGFB-1, 10 μg/mL Verteporfin+10 ng/ml TGFB-1, Dimethyl sulfoxide (DMSO), and cells without treatment. […] Quantitative polymerase chain reaction (qPCR) was performed.

[5] = test system: bleb survival after glaucoma filtration surgery; experiment: Rabbit model of glaucoma filtration surgery; type: in vivo, New Zealand White rabbits; conditions: subconjunctival injection into the bleb after surgery, various concentrations, versus BSS control eye
Procedure: FIGS. 5A-5B. Efficacy of verteporfin in reducing scarring and increasing bleb survival. The efficacy of verteporfin in reducing scarring and increasing bleb survival was evaluated in a rabbit model of glaucoma filtration surgery. Glaucoma filtration surgery was performed in both eyes of New Zealand White rabbits. In one eye, various concentrations of verteporfin or Mitomycin C was injected subconjunctivally into the bleb after surgery. In the contralateral eye, BSS was injected after surgery as a control. Bleb appearance and survival were evaluated postoperatively at least twice a week. Bleb survival was the primary endpoint. […] There were no post-surgical complications in all groups, including corneal edema, bleb leak, anterior chamber inflammation, iris involvement, cataract or infection (FIG. 5B).
The efficacy of verteporfin in reducing scarring and increasing bleb survival was evaluated in a rabbit model of glaucoma filtration surgery. Glaucoma filtration surgery was performed in both eyes of New Zealand White rabbits. In one eye, various concentrations of verteporfin or Mitomycin C was injected subconjunctivally into the bleb after surgery. In the contralateral eye, BSS was injected after surgery as a control. Bleb appearance and survival were evaluated postoperatively at least twice a week. Bleb survival was the primary endpoint.

Substance | expression of ASMA (immunostaining) [1] | scar formation in skin wounds (skin wounds; mice, injection into skin wounds) | side effects on dosing in the skin (skin wounds; previous animal studies) | cytotoxicity (live/dead) (hMSCs) | corneal scarring [2] | expression of ki67 (Mki67), marker of cell proliferation (qPCR) [3] | expression of alpha-SMA (qPCR) ([4]; 10 ng/ml TGFB-1 + 1 or 10 μg/mL Verteporfin, 24 hours) | bleb survival [5] | expression of alpha-SMA (ACTA-2) (qPCR) ([4]; 10 ng/ml TGFB-1 alone, after 24 hours)
Verteporfin | reduces the expression of ASMA | prevented scar formation | minimal side effects | not cytotoxic | reduced corneal scarring | did not increase the expression of ki67 | statistically reduced the expression of alpha-SMA in a dose dependent manner | trend towards increased survival | –
transforming growth factor beta-1 [TGFB-1] | – | – | – | – | – | – | – | – | statistically increased the expression of alpha-SMA
